The text below walks through data of PMC4306921 (Scientific Reports, 2015).

Holding throughout (type): cell-based
The test system of one assay is CHO-K1 cells. The conditions noted are these: CHO-K1, no receptor plasmid, 10 μM 5-HT, 12–24 h.
In a further assay the test system is 293T cells. The conditions noted are these: no receptor plasmid, 10 μM 5-HT, 12–24 h.
Another assay relates to adenylyl cyclase. The assay is described as follows: FSK stimulation in the CRE-luc reporter gene assay system. Conditions: read-out: EC50 value of FSK in reporter gene assay system; data not shown. Background: A reporter such as luciferase makes a cellular process visible.
The target in another assay is 5-HT2A receptor (Homo sapiens, UniProt P28223). The assay is described as follows: CRE-luc luciferase reporter gene assay, 5-HT2A transfected CHO-K1 cells. Conditions: 5-HT2A transfected cells, 0.1 μM antagonist, 5-HT lower than 1 μM.
Chain of 5-HT2A receptor (P28223 whole entry): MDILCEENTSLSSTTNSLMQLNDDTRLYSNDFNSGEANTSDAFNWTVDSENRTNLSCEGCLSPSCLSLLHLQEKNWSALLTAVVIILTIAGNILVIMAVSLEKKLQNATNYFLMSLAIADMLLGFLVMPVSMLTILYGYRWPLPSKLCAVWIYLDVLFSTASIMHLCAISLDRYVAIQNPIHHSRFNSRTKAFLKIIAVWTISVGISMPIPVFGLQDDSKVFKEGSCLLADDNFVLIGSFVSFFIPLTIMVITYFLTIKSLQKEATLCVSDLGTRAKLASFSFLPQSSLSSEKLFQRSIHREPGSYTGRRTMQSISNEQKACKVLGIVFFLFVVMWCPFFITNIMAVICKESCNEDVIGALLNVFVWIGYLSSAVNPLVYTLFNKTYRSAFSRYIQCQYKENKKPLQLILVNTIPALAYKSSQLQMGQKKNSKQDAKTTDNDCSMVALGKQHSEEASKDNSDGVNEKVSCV

For the compound `NCCc1c[nH]c2ccc(O)cc12` [5-HT], the “nonspecific/endogenous activation of CRE-luc by 5-HT” value in the assay with CHO-K1 cells was “no nonspecific and endogenous activation was observed”; with 293T cells, “significantly expression of luciferase was detected”.

The EC50 is the concentration giving half of the maximal effect. For the compound `C=C[C@@]1(C)CC(=O)[C@]2(O)[C@@]3(C)[C@@H](O)CCC(C)(C)[C@@H]3[C@H](O)[C@H](OC(C)=O)[C@@]2(C)O1` [FSK], the concentration giving a half-maximal response (EC50) with adenylyl cyclase came to 780 nM.

Take `CSc1ccc2c(c1)C(N1CCN(C)CC1)Cc1ccccc1S2` (stereo not shown) [Methiothepin]: the “suppression of luciferase reporter gene expression” value at 5-HT2A receptor is “significantly suppress”.
